Laboratory results: publication PMC12693701, “Glucosinolate-Derived Metabolites from Barbarea vulgaris (Brassicaceae): Evaluation of Antimicrobial, Antioxidant, and Anti-Inflammatory Potentials” (Molecules, 2025)

Experiments:
[1] = system: K. pneumoniae; assay: Inhibition of biofilm formation (crystal violet); assay type: cell-based, Klebsiella pneumoniae
Method: (§1) The procedure involved preparing 96-well microtiter plates (Sarstedt, Nümbrecht, Germany) by adding 100 μL of Mueller-Hinton nutrient broth to each well. A 10 μL aliquot of bacterial suspension (adjusted to 1.0 McFarland for Gram-positive bacteria and 0.5 McFarland for Gram-negative bacteria) was added to the wells. The plates were then incubated at 37 °C for 48 h to allow biofilm formation. After incubation, the wells were washed twice with 200 μL of sterile 0.85% saline to remove non-adherent and weakly adherent cells. Biofilms formed by the adherent bacteria were fixed with 100 μL of methanol until fully evaporated. The biofilms were then stained using 0.1% (w/v) crystal violet (Fluka Chemie AG, Buchs, Switzerland) and left at room temperature for 20 min. After staining, excess dye was washed off with deionized water, followed by 96% ethanol. Controls included wells containing only nutrient broth to check for sterility and nonspecific binding. Background absorbance from the sterile medium, fixative, and dye was subtracted from the OD readings of the test samples. All experiments were performed in triplicate.
(§2) To assess the inhibition of biofilm formation, 96-well microtiter plates (Sarstedt, Nümbrecht, Germany) were prepared by dispensing 100 μL of Mueller-Hinton broth into each well. From stock solutions of tested compounds (at 10 mg/mL), 100 μL was added to the first row of the plate, followed by twofold serial dilutions (from 5 to 0.039 mg/mL) using a multichannel pipette (Eppendorf AG, Hamburg, Germany). Subsequently, 10 μL of fresh bacterial suspension (adjusted to 0.5 McFarland for Gram-negative and 1.0 McFarland for Gram-positive bacteria) was added to each well. The plates were incubated at 37 °C for 48 h. After incubation, the contents of the wells were carefully removed by tapping, and the remainder of the experiment was conducted following the procedure described above.
(§3) Controls consisted of wells containing only broth or broth with the tested compounds to assess sterility and nonspecific binding. Background absorbance was subtracted from test readings as described earlier. All experiments were performed in triplicate, and tetracycline (Sigma-Aldrich, St. Louis, MO, USA), dissolved in nutrient broth, was used as a reference compound.

[2] = system: B. subtilis ATCC 6633; assay: Inhibition of biofilm formation (crystal violet); assay type: cell-based, Bacillus subtilis
Method: as §1, §2, §3

[3] = system: P. mirabilis; assay: Inhibition of biofilm formation (crystal violet); assay type: cell-based, Proteus mirabilis
Method: as §1, §2, §3

[4] = system: S. aureus ATCC 25923; assay: Inhibition of biofilm formation (crystal violet); assay type: cell-based, Staphylococcus aureus
Method: as §1, §2, §3

[5] = system: S. enterica; assay: Inhibition of biofilm formation (crystal violet); assay type: cell-based, Salmonella enterica; details: biofilm coverage reduced by 90%
Method: as §1, §2, §3

[6] = target: T1, Type I-B soybean lipoxygenase (Glycine max, UniProt P08170); assay: LOX inhibition assay; assay type: biochemical; details: 100 µM; mean ± SD; read-out: Percentage of LOX Inhibition
T1 sequence (P08170 1-839): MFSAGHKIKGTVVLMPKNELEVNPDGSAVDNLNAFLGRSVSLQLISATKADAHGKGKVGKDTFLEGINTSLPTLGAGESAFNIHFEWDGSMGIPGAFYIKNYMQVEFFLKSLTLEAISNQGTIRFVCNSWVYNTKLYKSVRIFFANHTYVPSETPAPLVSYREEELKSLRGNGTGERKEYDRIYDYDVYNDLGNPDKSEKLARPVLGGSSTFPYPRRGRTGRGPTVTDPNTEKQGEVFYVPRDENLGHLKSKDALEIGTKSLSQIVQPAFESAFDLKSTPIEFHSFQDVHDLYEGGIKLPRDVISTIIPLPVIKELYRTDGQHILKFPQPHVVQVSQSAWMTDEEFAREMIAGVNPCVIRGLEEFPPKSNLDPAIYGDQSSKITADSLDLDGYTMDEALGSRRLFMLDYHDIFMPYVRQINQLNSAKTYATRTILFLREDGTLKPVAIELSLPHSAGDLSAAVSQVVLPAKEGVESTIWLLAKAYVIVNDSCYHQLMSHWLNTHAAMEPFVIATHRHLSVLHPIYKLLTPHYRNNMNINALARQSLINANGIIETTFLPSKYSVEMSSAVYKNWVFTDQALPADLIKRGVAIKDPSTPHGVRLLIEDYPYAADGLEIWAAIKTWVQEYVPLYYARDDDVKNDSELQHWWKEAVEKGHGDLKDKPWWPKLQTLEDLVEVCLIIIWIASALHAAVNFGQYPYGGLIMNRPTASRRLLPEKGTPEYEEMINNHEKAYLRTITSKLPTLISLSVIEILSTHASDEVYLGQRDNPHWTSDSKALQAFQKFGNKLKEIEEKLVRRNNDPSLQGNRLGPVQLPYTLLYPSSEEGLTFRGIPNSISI
Method: Type I-B soybean lipoxygenase is a commonly used enzyme for studying the anti-inflammatory properties of various compounds [19]. The lipoxygenase (LOX) inhibition assay measures the enzyme’s ability to convert sodium linoleate to 13-hydroperoxylinoleic acid. The inhibition of the enzyme by the investigated compounds was determined by measuring the absorbance at 234 nm for each prepared sample. Specifically, the test compound, Tris buffer, an enzyme solution (5 × 10^3 units/mL in saline), and sodium linoleate (3 mM in Tris buffer, pH 9), were added to a UV cuvette, and the absorbance was recorded. […] All measurements were performed in triplicate.

[7] = DPPH radical scavenging assay; details: mean ± SD
Method: The DPPH assay was used to assess the ability of the tested compounds to scavenge reactive radical species. Stock solutions of the investigated compounds were prepared in DMSO and then diluted with methanol to a final volume of 1000 µL. An equal volume of a 50 µM DPPH solution in methanol was then added to the prepared mixture. The final concentrations of the test compounds were 25, 50, and 100 µM. After thorough mixing, the samples were incubated in the dark at room temperature for 20 to 60 min. Methanol was used as a blank, and absorbance was measured at 517 nm after incubation. All measurements were performed in triplicate.

[8] = biofilm coverage reduced by 50%
[9] = biofilm coverage reduced by 90%

SMILES | BIC50 [1, 8] [µg/mL] | BIC90 [1, 9] [µg/mL] | BIC50 [2, 8] | BIC90 [2, 9] [µg/mL] | BIC50 [3, 8] [µg/mL] | BIC90 [3, 9] [µg/mL] | BIC50 [4, 8] [µg/mL] | BIC90 [4, 9] [µg/mL] | BIC90 [5] [µg/mL] | inhibition at 100 µM [6] [%] | DPPH Scavenging Ability ([7]; 25 µM, 20 min) [%] | DPPH Scavenging Ability ([7]; 25 µM, 60 min) [%] | DPPH Scavenging Ability ([7]; 50 µM, 20 min) [%] | DPPH Scavenging Ability ([7]; 50 µM, 60 min) [%] | DPPH Scavenging Ability ([7]; 100 µM, 20 min) [%] | DPPH Scavenging Ability ([7]; 100 µM, 60 min) [%]
CN(C)[C@@H]1C(O)=C(C(N)=O)C(=O)[C@@]2(O)C(O)=C3C(=O)c4c(O)cccc4[C@@](C)(O)[C@H]3C[C@@H]12 [Tetracycline, reference compound] | 6 | 125 | ˂15.6 µg/mL | 15.6 | 320 | >1000 | 250 | 300 | 180 | – | – | – | – | – | – | –
O=c1c(O)c(-c2ccc(O)c(O)c2)oc2cc(O)cc(O)c12 [Quercetin, reference compound] | – | – | – | – | – | – | – | – | – | 92 ± 0.9 | 95.3 ± 0.8 | 95.1 ± 0.9 | 96.8 ± 1.0 | 96.5 ± 0.9 | 95.1 ± 0.9 | 95.4 ± 0.8
